Read-outs that look alike come from different tables or passages of the source.
Experiments:
[1] = test system: MRSA; test: In vitro biofilm formation by biofilm producing MRSA strains challenged with Mupirocin, with or without NIMELS infrared light; format: cell-based, methicillin resistant Staphylococcus aureus
Excerpt: The applicant tested the effect in vitro against MRSA with the topical drug Mupirocin.
Accordingly, the PMBIC for MRSA challenged with Mupirocin was established using a straightforward testing protocol.

[2] = test system: MRSA; conditions: cited from earlier work
[3] = test system: MRSA; conditions: of 38 patients, topical mupirocin; cited from earlier work
[4] = test system: S. aureus; conditions: cited from earlier work

In the case of `C/C(=C\C(=O)OCCCCCCCCC(=O)O)C[C@@H]1OC[C@H](C[C@@H]2O[C@H]2[C@@H](C)[C@H](C)O)[C@@H](O)[C@H]1O` [Mupirocin], the “prevention of biofilm formation” value ([1]; drug treatment alone, in vitro, biofilm producing MRSA strain (FIG. 9 left panel)) is given as “not effective in preventing biofilm formation”, the “inhibition of biofilm production” value ([1]; sub-lethal NIMELS infrared light doses (870/930 nm, Table I) applied prior to drug, two different samples of MRSA (FIG. 9 right panel, FIG. 10)) is given as “did in fact inhibit biofilm production” and the MIC ([2]; 17 failed samples that were biofilm producing strains) is given as no more than 2 µg/mL. For the same compound, the MIC ([2]; MRSA samples of the 14 patients with successful eradication) was no more than 1 µg/mL, the “patients successfully eradicated of their MRSA” value [3] was 14 and the “effect on planktonic bacteria” value ([4]; applied 15 minutes after inoculation (representing planktonic bacteria)) was “reduced planktonic bacteria”. For the same compound, the “effect on biofilm bacteria” value ([4]; applied 48 hours after inoculation (representing biofilm bacteria)) was “decreased efficacy on S. aureus biofilms”.

— patent US10702706B2, “Apparatus, system, and method for generating photo-biologic minimum biofilm inhibitory concentration of infrared light” (NOMIR MEDICAL TECHNOLOGIES, INC., priority 2013, dated 2020)
